The results in this text go back to US7884115B2, “Methods and compositions for the treatment of pain and other neurological conditions” (Allergan, Inc., priority 2004, dated 2011).

One experiment concerns chronic pain. Description: Mouse and rat models of chronic pain (summary statement). The class given is in vivo.
Experiment [1] deals with primary rat brain cortical neurons treated with kainate. Description: Kainate-induced excitotoxicity in primary cortical neurons (LDH release). The class given is cell-based. Particulars: cortical cell cultures; FIGS. 9A, 9B and 9C. The method, then: (§1) Primary rat brain cortical neurons were cultured as follows. In brief, rat cerebral cortices were removed from brains of the 16 day-old-fetal rats. The neocortices were gently triturated and plated on 24 well plates (300,000 viable cells/cm2) in plating Modified Eagle's Medium (MEM) supplemented with 10% horse serum, 10% fetal calf serum and 2 mM L-glutamine. Cultures were maintained at 37 C in a humidified 5% CO2 atmosphere.
After 4 days' growth (DIV 4), half of the medium was replaced by a medium identical to the plating medium but lacking calf serum. At DIV4, 10 μM 5-fluoro-2-deoxyuridine was included to each well to halt overgrowth of glia. Mixed cultures of neurons and glia were then fed at DIV7 and DIV11 with MEM plus 5% horse serum previously conditioned by growth with cortical astrocytes for 24 h.
Excitotoxicity was induced in these cells by addition of 50 μM kainate or 20 μM N-methyl-D-aspartate plus 10 μM D-serine to each well.
Under the experimental conditions used, i.e. after 6 hours addition of excitotoxic agent, 40% toxicity is generally observed and measured by determination of the amount of lactate dehydrogenase (LDH) released into the medium following membrane degradation. Such assay methods are well-known; a kit for conducting a homogeneous form of the LDH assay format is sold by Promega under the name CytoTox ONE® Homogenous Membrane Integrity Assay. Overall cell injury was assessed microscopically under phase-contrast optics or by measuring amount of LDH released into the bathing medium 24 hr after neurotoxic insults (see, e.g., Koh and Choi, J. NEUROSCI. METHODS 20: 83-90, 1987), hereby incorporated by reference herein.
[…] The final results are normalized optical density (OD) values (treated cells/untreated control cells), where a value of 1 represents 100% neuronal survival and a value of 0.6 represents 60% survival.
On the technique in general: LDH leaks from cells whose membrane has failed.

The test system of experiment [2] is primary rat brain cortical neurons treated with NMDA plus D-serine. The experiment is described as follows: NMDA/serine-induced excitotoxicity in primary cortical neurons (LDH release). The class given is cell-based. The note with it: NMDA/serine-treated cells, 3 h or 16 h preincubation; FIGS. 10A and 10B. The method, then:
as §1
After 4 days' growth (DIV 4), half of the medium was replaced by a medium identical to the plating medium but lacking calf serum. At DIV4, 10 μM 5-fluoro-2-deoxyuridine was included to each well to halt overgrowth of glia. Mixed cultures of neurons and glia were then fed at DIV7 and DIV11 with MEM plus 5% horse serum previously conditioned by growth with cortical astrocytes for 24 h. […]
Under the experimental conditions used, i.e. after 6 hours addition of excitotoxic agent, 40% toxicity is generally observed and measured by determination of the amount of lactate dehydrogenase (LDH) released into the medium following membrane degradation. […] Overall cell injury was assessed microscopically under phase-contrast optics or by measuring amount of LDH released into the bathing medium 24 hr after neurotoxic insults (see, e.g., Koh and Choi, J. NEUROSCI. METHODS 20: 83-90, 1987), hereby incorporated by reference herein. […]

The subject of experiment [3] is allodynia induced by N-methyl-D-aspartate (NMDA). The experiment is described as follows: Mouse NMDA model of allodynia. The class given is in vivo. The note with it: 3 mg/kg, 15 min before 200 ng NMDA IT, FIG. 2. The method, then: In variants of this model, allodynia can be induced using 100 ng N-methyl-D-aspartate (NMDA) in DMSO intrathecally, or IP phenylephrine (PE) 100 ng/kg formulated in dH2O. In either model, the compounds are formulated in d-H2O and given in a volume of 1 ml/kg body weight for intraperitoneal (IP) dosing. Six mice per group are rendered allodynic by injection of one of the following agents: 300 ng/kg sulprostone in DMSO IP, 100 ng/kg phenylephrine (PE) in dH2O IP, or 100 ng NMDA in DMSO intrathecally (IT). Fifteen minutes before administration of the allodynia-inducing agents, the experimental mice are given 1 mg/kg NB-DNJ. Thirty (30) minutes following administration of NB-DNJ, the allodynic response is monitored as described by brushing the flank of each mouse with a paint brush. Six mice per group are given one of the following: given 100 μg/kg NB-DNJ, 300 μg/kg NB-DNJ, 1 mg/kg NB-DNJ, or 3 mg/kg 1-deoxynojirimycin. After 15 minutes the mice are rendered allodynic by injection of 200 ng NMDA in DMSO IT. Starting thirty (30) minutes following administration of NB-DNJ, the allodynic response of each mouse is monitored by brushing the flank of the mouse with a paint brush. Five to six mice per group are rendered allodynic by injection of one of the following: 300 ng/kg sulprostone IP, 100 ng/kg phenylephrine (PE) IP, or 100 ng NMDA intrathecally (IT). Fifteen minutes prior to the induction of allodynia, the mice are given D-glucaro-delta-lactam IP at […], or 1 mg/kg. PE or NMDA-treated mice are given 1 mg/kg D-glucaro-delta-lactam IP.

Experiment [4] concerns allodynia induced by sulprostone. Description: Mouse sulprostone model of allodynia. The class given is in vivo. The note with it: up to 1 mg/kg, 15 min before sulprostone 300 ng/kg IP, FIG. 3. The method, then:
In this alternative model of chronic pain, allodynia can be induced in mice through intraperitoneal treatment of the animals with 300 ng/kg sulprostone (prostaglandin E2 receptor agonist) in 50% DMSO and in a volume of 5 μl. In this model, the pain response to stroking the flank with a paint brush is scored 8 times over a 35 minute period starting 15 minutes following spinal administration of sulprostone. Minami et al., 57 Pain 217-223 (1994), hereby incorporated by reference herein. Sulprostone treatment alone elicits a score of 12-13 on a 16-point scale.
In either model, the compounds are formulated in d-H2O and given in a volume of 1 ml/kg body weight for intraperitoneal (IP) dosing.
Six mice per group are rendered allodynic by injection of one of the following agents: 300 ng/kg sulprostone in DMSO IP, 100 ng/kg phenylephrine (PE) in dH2O IP, or 100 ng NMDA in DMSO intrathecally (IT). Fifteen minutes before administration of the allodynia-inducing agents, the experimental mice are given 1 mg/kg NB-DNJ. Thirty (30) minutes following administration of NB-DNJ, the allodynic response is monitored as described by brushing the flank of each mouse with a paint brush.
Five to six mice per group are rendered allodynic by injection of 300 ng/kg sulprostone IP. Fifteen minutes before inducement of an allodynic response, experimental mice are given one of the following: 1 mg/kg, 300 μg/kg, and 100 μg/kg NB-DNJ; 1 mg/kg N-butyldeoxymannojirimycin; 1 mg/kg N-5-carboxy-1-deoxynojirimycin; 1 mg/kg N-dodecyldeoxynojirimycin; 1 mg/kg N-ethyl-1-deoxynojirimycin; 1 mg/kg, 300 μg/kg, and 30 μg/kg D-glucaro-delta-lactam; 1 mg/kg 4-O-a-D-glucopyranosylmoranoline; 1 mg/kg nojirimycin bisulfite; 1 mg/kg nojirimycin-1-sulfonic acid; 1 mg/kg N-(n-nonyl)deoxynojirimycin; 1 mg/kg N(7-oxadecyl)deoxynojirimycin; and 1 mg/kg N-(7-oxa-9,9,9-trifluorononyl)deoxynojirimycin. The DMSO vehicle and sulprostone alone are used as controls.
Starting thirty (30) minutes following administration of NB-DNJ, the allodynic response of each mouse was monitored by brushing the flank of the mouse with a paint brush.
Five to six mice per group are rendered allodynic by injection of one of the following: 300 ng/kg sulprostone IP, 100 ng/kg phenylephrine (PE) IP, or 100 ng NMDA intrathecally (IT). Fifteen minutes prior to the induction of allodynia, the mice are given D-glucaro-delta-lactam IP at […], or 1 mg/kg. PE or NMDA-treated mice are given 1 mg/kg D-glucaro-delta-lactam IP.

For `CCCCN1C[C@H](O)[C@@H](O)[C@@H](O)[C@H]1CO` [NB-DGJ, N-butyldeoxygalactonojirimycin], the “activity in models of chronic pain” value with chronic pain is listed as “not to be active”.
With `OC[C@H]1NC[C@H](O)[C@@H](O)[C@@H]1O` [DNJ, 1-deoxynojirimycin], the “protection against kainate induced toxicity” value in experiment [1] is “about 50%”. The neuroprotective effect entry in experiment [2] is reported as “no neuroprotective effect”. Besides, the analgesic activity entry in experiment [3] is reported as “not analgesic”.
For the molecule `CCN1C[C@H](O)[C@@H](O)[C@H](O)[C@H]1CO` [N-ethyldeoxynojirimycin, N-ethyl-1-deoxynojirimycin], in experiment [4], the “attenuation of the allodynic response (analgesic activity)” value is given as “attenuate the allodynic response”.
